From patent US6017923A, “Carbo-acyclic nucleoside derivatives as antiviral and antineoplastic agents” (Hoechst Marion Roussel, Inc., priority 1996, dated 2000)
Values after ≈ are worked out from the molar mass of the structure shown.

Test system: HeLa cells
Assay: Inhibitory effects of compounds on HeLa cell proliferation in vitro (96 h)
Type: cell-based
Conditions: Homo sapiens, exponentially growing, concentration at 50% inhibition of cell growth
Experimental: INHIBITORY EFFECTS OF COMPOUNDS ON HeLa CELL PROLIFERATION The inhibitory effect of various compounds of formula (1) on HeLa cell proliferation invitro was determined according to the method described by Sunkara et al. [J. Natl. Cancer Instit. 70, 505-509 (1983)]. Exponentially growing HeLa cells were incubated in the presence or absence of various concentrations of test compounds for 96 hours. IC50 values were calculated which represent the test compound concentration at 50% inhibition of cell growth.

Structure (SMILES) | IC50 [µg/mL]
Nc1ncnc2c1ncn2CC/C(=C\F)CO [Compound A, (E)-4-(Adenin-9-yl)-2-hydroxymethyl-1-fluorobut-1-ene] | 0.25 (≈ 1.05 µM)
Nc1ncnc2c1ncn2CC/C(=C/F)CO [Compound B, (Z)-4-(Adenin-9-yl)-2-hydroxymethyl-1-fluorobut-1-ene] | 1 (≈ 4.22 µM)
C=C(CO)CCn1cnc2c(N)ncnc21 [Compound C, 4-(Adenin-9-yl)-2-hydroxymethylbut-1-ene] | 0.6 (≈ 2.74 µM)
